Entries after “also recorded” stand apart in the source; their conditions may differ.
Key:
S. cerevisiae = test: Hydrolysis by hydrolytic enzymes of yeast grown in the presence of the compound, HPLC of lysed cells; format: cell-based; conditions: for mogroside content after incubation: S. cerevisiae
Description: (§1) S. cerevisiae or Y. lipolytica was grown in the presence of Mogroside V to allow the hydrolytic enzymes in the yeast to generate Mogroside IIIE. After 1 or 2 days, the cells were lysed in analyzed by HPLC to determine the mogroside content.
(§2) S. cerevisiae or Y. lipolytica was grown in the presence of Compound 1.

Y. lipolytica = test: as above; format: cell-based
Description: as §1, §2

[1] = tested on: Saccharomyces cerevisiae, Yarrowia lipolytica and Candida bombicola; test: Tolerance to microbial hydrolysis: yeast strains incubated in YPD with 1 mg/ml compound, supernatants analysed by HPLC; format: cell-based; conditions: after 3 days
Description: Yeast strains Saccharomyces cerevisiae, Yarrowia lipolytica and Candida bombicola, were incubated in YPD supplemented with 1 mg/ml Mogroside V or Compound 1. After 3 days, supernatants were analyzed by HPLC.

cucurbitadienol = test: 11-OH cucurbitadienol production from cucurbitadienol by CYP450s expressed in S. cerevisiae, LCMS; format: cell-based; conditions: S. cerevisiae strain producing cucurbitadienol and expressing SgCPR; LCMS peak area of product vs. internal reference; hits over vector only control
Description: (§3) DNA was obtained through gene synthesis either through Genescript, IDT, or Genewiz. For some of the cucurbitadienol synthases, cDNA or genomic DNA was obtained through 10-60 day old seedlings followed by PCR amplification using specific and degenerate primers. DNA was cloned through standard molecular biology techniques or through yeast gap repair cloning (Joska et al., 2014) into one of the following overexpression vectors: pESC-Ura, pESC-His, or pESC-LEU. Gene expression was regulated by one of the following promoters; Gall, Gal10, Tef1, or GDS. Yeast transformation was performed using Zymo Yeast Transformation Kit II. Yeast strains were grown in standard media (YPD or SC) containing the appropriate selection with 2% glucose or 2% galactose for induction of heterologous genes. Yeast strains were grown in shake flask or 96 well plates at 30° ° C., 140-250 rpm. When indicated, lanosterol synthase inhibitor, Ro 48-8071 (Cayman Chemicals) was added (50 ug/ml). Yeast samples producing mogrol precursors, mogrol and mogrosides were processed through one of the following: • Cucurbitadienol and 11-OH Cucurbitadienol: Samples cell pellets were lysed (Yeast Buster) followed by ethyl acetate extraction, drying, and resuspension in methanol. • ·Mogrol and Mogrosides: Samples cell pellets were lysed in 50% ETOH, incubated at 80° C. for 30 min, filtered, dried and resuspended in MeOH for LCMS screening.
For analyzing 11-OH cucurbitadienol, the LCMS method included the use of C8 2.1×100 mm column, gradient 60 to 90% B for 6 minutes at flow rate of 0.55 ml/min. For the enzyme screening, the LCMS method used was a Waters Acquity UPLC Protein BEH C4, 2.1×100 mm, 1.7 μm column and a gradient of 40% to 80% over 5 minutes, 95% B from 5.1 to 5.6 minutes with a flow rate of 0.55 ml/min, and ESI source positive mode single ion monitoring of 425.4.
Additional CYP450s were expressed in S. cerevisiae strain producing cucurbitadienol and expressing SgCPR. DNA and protein sequences for the CYP450 enzymes are shown in SEQ IDs 871-890 and 1024-1049 (see Table 1).

[2] = tested on: cucurbitadienol synthase activity; test: Cucurbitadienol synthase activities of fusion proteins in yeast strain with oxidosqualene boost, LCMS; format: cell-based, S. cerevisiae; conditions: average % activities over the average activities of the parent enzyme (Cucumis melo cucurbitadienol synthase)
Description: For analyzing cucurbitadienol, the first LCMS method included the use of C4 2.1×100 mm column, gradient 1 to 95% B for 6 minutes, and at flow rate of 0.55 ml/min; and the second LCMS method included the use of Waters Acquity UPLC Protein BEH C4 2.1×100 […], 1.7 μm, with guard, 62 to 67% B for 2 min, 100% B for 1 min, and at flow rate of 0.9 ml/min and ESI source positive single ion monitoring of 427 and 409.
The gene encoding for a cucurbitadienol synthase form Cucumis melo was codon optimized (SEQ ID: 907) and used as a starting point for generating a library of modifications. Modifications were introduced through standard molecular biology techniques consisting of fusion peptides at the N-terminus (i.e., 5′) or C-terminus (i.e., 3′) end of the enzyme. Plasmids libraries of modified cucurbitadienol synthase genes were transformed into a yeast strain with oxidosqualene boost. Enzyme activities were measured by ratios of peak heights or areas of 409 and 427 positive mass fragments at the expected retention times for cucurbitadienol vs. an internal standard using LCMS method 2 described above. Enzyme performance were scored as average % activities over the average activities of the parent enzyme (n=8). Step 1 sequences of the enzymes and the sequences that encode the enzyme can be found in SEQ ID NOs: 951-1012. Step 1 sequence also include the fusions SS2c-G10, SS2e-A7b, SS2d-G11. […]

mogrol precursors = test: Mogrol production by EPHs tested in a yeast strain producing mogrol precursors; format: cell-based
Description: as §3, with “Yeast samples producing mogrol precursors, mogrol and mogrosides were processed through one of the following: • Cucurbitadienol and 11-OH Cucurbitadienol: Samples cell pellets were lysed (Yeast Buster) followed by ethyl acetate extraction, drying, and resuspension in methanol. • ·Mogrol and Mogrosides: Samples cell pellets were lysed in 50% ETOH, incubated at 80° C. for 30 min, filtered, dried and resuspended in MeOH for LCMS screening.” left out

In the case of `C[C@H](CC[C@@H](O[C@@H]1O[C@H](CO[C@H]2O[C@H](CO)[C@@H](O)[C@H](O)[C@H]2O)[C@@H](O)[C@H](O)[C@H]1O[C@@H]1O[C@H](CO)[C@@H](O)[C@H](O)[C@H]1O)C(C)(C)O)C1CC[C@@]2(C)C3CC=C4C(CC[C@H](O[C@@H]5O[C@H](CO)[C@@H](O)[C@H](O)[C@H]5O)C4(C)C)[C@]3(C)[C@H](O)C[C@]12C` (some centres unmarked) [Compound 1], the hydrolysis products (S. cerevisiae; S. cerevisiae grown in the presence of the compound) is reported as “no hydrolysis products due to hydrolysis of Compound 1 was observed; also recorded: no hydrolysis product from Compound 1 was detected”, the hydrolysis products (Y. lipolytica; Y. lipolytica grown in the presence of the compound) is reported as “no hydrolysis products due to hydrolysis of Compound 1 was observed; also recorded: no hydrolysis product from Compound 1 was detected” and the “hydrolysis by yeast strains (hydrolysis products by HPLC)” value [1] is reported as “no hydrolysis products observed; also recorded: tolerance of Compound 1 to hydrolysis by microbial enzymes”.

`C[C@H](CC[C@@H](O[C@@H]1O[C@H](CO[C@@H]2O[C@H](CO)[C@@H](O)[C@H](O)[C@H]2O)[C@@H](O)[C@H](O)[C@H]1O[C@@H]1O[C@H](CO)[C@@H](O)[C@H](O)[C@H]1O)C(C)(C)O)[C@H]1CC[C@@]2(C)[C@@H]3CC=C4[C@@H](CC[C@H](O[C@@H]5O[C@H](CO[C@@H]6O[C@H](CO)[C@@H](O)[C@H](O)[C@H]6O)[C@@H](O)[C@H](O)[C@H]5O)C4(C)C)[C@]3(C)[C@H](O)C[C@]12C` [Mogroside V, reference compound] was tested, and the “mogroside content after incubation” value (S. cerevisiae; 1 day of incubation) was “produced a mixture of Mogroside V, Mogrosides IV, and Mogroside IIIE”, the “mogroside content after incubation” value (S. cerevisiae; 2 days of incubation) was “substantially all of the mogrosides were converted to Mogroside IIIE” and the “mogroside content after incubation” value (Y. lipolytica; Y. lipolytica, 2 days of incubation) was “produced mostly Mogroside IIIE”. The “hydrolysis by yeast strains (hydrolysis products by HPLC)” value [1] was “hydrolyzed Mogroside V to Mogroside IIIE”.

B1: SEQ ID NO. 1024/1025: CYP450 enzyme (DNA/protein SEQ ID NO) producing 11-OH cucurbitadienol (protein, listed as Citrullus lanatus)
chain: MWTILLGLATLAIAYYIHWVNKWKDSKFNGVLPPGTMGLPLIGETIQLSRPSDSLDVHPFIQSKVKRYGPIFKTCLAGRPVVVSTDAEFNHYIMLQEGRAVEMWYLDTLSKFFGLDTEWLKALGLIHKYIRSITLNHFGAESLRERFLPRIEESARETLHYWSTQPSVEVKESAAAMVFRTSIVKMFSEDSSKLLTGGLTKKFTGLLGGFLTLPLNLPGTTYNKCIKDMKEIQKKLKDILEERLAKGTGNDEDFLGQAIKDKESQQFISEEFIIQLLFSISFASFESISTSLTLILKFLADHPQVVKELEAEHEAIQKARADPDGPITWEEYKSMTFTLNVISETLRLGSVTPALLRKTTKEIQIKGYTIPEGWTVMLVTASRHRDPEVYKDPDTFNPWRWKELDSITVQKNFMPFGGGLRHCAGAEYSKVYLCTFLHILFTKYRWTKLKGGKIARAHILRFEDGLHVKFTPKE
In the case of B1, the “Peak Area 11-OH CCB” value (cucurbitadienol) is reported as 1.231.

B2: SEQ ID NO 1024: fusion protein having cucurbitadienol synthase activity (protein, listed as Citrullus lanatus)
chain: MWTILLGLATLAIAYYIHWVNKWKDSKFNGVLPPGTMGLPLIGETIQLSRPSDSLDVHPFIQSKVKRYGPIFKTCLAGRPVVVSTDAEFNHYIMLQEGRAVEMWYLDTLSKFFGLDTEWLKALGLIHKYIRSITLNHFGAESLRERFLPRIEESARETLHYWSTQPSVEVKESAAAMVFRTSIVKMFSEDSSKLLTGGLTKKFTGLLGGFLTLPLNLPGTTYNKCIKDMKEIQKKLKDILEERLAKGTGNDEDFLGQAIKDKESQQFISEEFIIQLLFSISFASFESISTSLTLILKFLADHPQVVKELEAEHEAIQKARADPDGPITWEEYKSMTFTLNVISETLRLGSVTPALLRKTTKEIQIKGYTIPEGWTVMLVTASRHRDPEVYKDPDTFNPWRWKELDSITVQKNFMPFGGGLRHCAGAEYSKVYLCTFLHILFTKYRWTKLKGGKIARAHILRFEDGLHVKFTPKE
With B2 the “Activity (as compared to the parent)” value [2] was 166%.

B3: SEQ ID NO. 1072 and 1073: epoxide hydrolase (EPH); coding DNA and protein sequence (protein)
chain: MDAIQHTTIKTNGIKMHIASVGNGPVVLLLHGFPELWYSWRHQLLYLSSVGYRAIAPDLRGYGDTDSPESHTSYTALHIVGDLVGALDELGIEKVFLVGHDWGAIIAWYFCLFRPERIKALVNLSVQFFPRNPAISFIQRFRAAYGDDFYMCRFQVPGEAEADFACIDTAQLFKTTLSNRSTKAPCLPKEYGFRAIPPPENLPSWLTEEDINYYAAKFKETGFTGALNYYRAFDLTWELTAPWTGVQIQVPVKFIVGDSDLTYHFKGAKEYIHEGGFKRDVPLLEEVVIVENAGHFVHEEKPHEINTHIHDFIKKF
modifications: Cucumis melo
With B3 the “ability to produce mogrol” value (mogrol precursors) was “showed the ability to produce mogrol”.

B4: SEQ ID NO. 1048/1049: CYP450 enzyme (DNA/protein SEQ ID NO) producing 11-OH cucurbitadienol (protein, listed as Siraitia grosvenorii)
chain: MWLLLIGAIVVLSFTRWLYGWKNPKCNGKLPPGSMGFPLLGETLQFFSPNTSSDVPPFIRKRMDRYGPIFRTNLVGRPLIVSTDSDLNYFIFQQEGQLFQSWYPDTFTEIFGRQNVGSLHGFMYKYLKNMVLHLFGPESLRKMIPEVEAAATRRLRQWSSHNTVELKDETASMIFDLTAKKLISYDLESSSENLRDNFVAFIQGLISFPLNVPGTAYHKCLQGRKRAMRMLKNMLQERRANPRKQQIDFFDFVLEELEKDGTLLTEEIALDLMFVLLFASFETTSLALTAAIKFLLDNPHVLEELTAEHEGILKRRENADSGLTWGEYKSMTFTFQFINETVRLANIVPGIFRKALRDIQFKGYTIPAGWAVMVCPPAVHLNPEKYIDPLAFNPWRWEKSELNGASKHFMAFGGGMRFCVGTDFTKVQMAVFLHCLVTKYRFKAIKGGNIIRTPGLQFPNGFHIQITEK
B4 was tested, and the “Peak Area 11-OH CCB” value (cucurbitadienol) was 0.2083.
